These results are taken from ChEMBL document CHEMBL1141210, “Structure-based discovery of a new class of Hsp90 inhibitors” (Bioorg Med Chem Lett, 2005).

The target of test [1] is Heat shock protein HSP90 (Homo sapiens, UniProt P07900+P08238).
Description: Binding affinity to Hsp90 by fluorescent polarization assay
The subject of test [2] is HCT-116. The test can be described thus: Inhibition of cell proliferation in HCT116 human colon cancer cell line. It counts as functional.
The subject of test [3] is BT-474. The test can be described thus: Inhibition of cell proliferation in BT474 human breast cancer cell line after 48 hr exposure. It counts as functional. The note with it: BT-474, 48 h.

By IC50 is commonly meant the concentration needed to halve the response being measured. What is called GI50 is the concentration at which growth is held to half of that of the control. Low values mean more potent growth inhibition, high ones less potent growth inhibition.

Consider `CCc1ccc(S(=O)(=O)Nc2ccc(O)c(-c3c(O)ccc4ccccc34)c2)cc1`, for which, in test [1], the IC50 was found to be 6.6 µM. This counts as single-digit micromolar. `O=S(=O)(Nc1ccc(O)c(-c2c(O)ccc3ccccc23)c1)c1ccc(Br)cc1` gave an IC50 in test [1] of 6.1 µM. `Cc1cc(C)c(S(=O)(=O)Nc2ccc(O)c(-c3c(O)ccc4ccccc34)c2)cc1C` registered an IC50 in test [1] of 15.2 µM. Against the preceding compound, the IC50 is about 2.5-fold higher. As to `O=S(=O)(Nc1ccc(O)c(-c2c(O)ccc3ccccc23)c1)c1cccs1`, the half-inhibitory concentration (IC50) in test [1] amounted to 0.6 µM. The same compound returned a GI50 in test [2] of 59.8 µM. For `O=S(=O)(Nc1ccc(O)c(-c2c(O)ccc3ccccc23)c1)c1ccc(Cl)cc1` the same measures were 2.2 µM and 27.8 µM. In the case of `O=S(=O)(Nc1ccc(O)c(-c2c(O)ccc3ccccc23)c1)c1ccc(F)cc1`, the IC50 in test [1] turned out to be 8.8 µM.

As for `O=S(=O)(Nc1ccc(O)c(-c2c(O)ccc3ccccc23)c1)c1cc(Cl)ccc1Cl`, the values for the GI50 in test [3] and in test [2] were 34.9 µM and 29 µM, respectively. In test [1], `CC(C)(C)c1ccc(S(=O)(=O)Nc2ccc(O)c(-c3c(O)ccc4ccccc34)c2)cc1` showed an IC50 of 26.4 µM. Compound `O=S(=O)(Nc1ccc(O)c(-c2c(O)ccc3ccccc23)c1)c1ccccc1` registered an IC50 in test [1] of 3.3 µM. In turn, `C[C@@H]1C[C@H]2O[C@@H]2/C=C\C=C\C(=O)Cc2c(Cl)c(O)cc(O)c2C(=O)O1` [RADICICOL] returned a GI50 in test [2] of 0.13 µM. This counts as sub-micromolar. Same read-out and setting: as for `C=CCNC1=C2C[C@@H](C)C[C@H](OC)[C@H](O)[C@@H](C)/C=C(\C)[C@H](OC(N)=O)[C@@H](OC)/C=C\C=C(/C)C(=O)NC(=CC1=O)C2=O` [TANESPIMYCIN], the figure is 0.16 µM.
